The record followed here is publication PMC5065130, “Functional Trade-Offs in Promiscuous Enzymes Cannot Be Explained by Intrinsic Mutational Robustness of the Native Activity” (PLoS Genetics, 2016).

The assay deals with T1, wtPTE (Brevundimonas diminuta, UniProt P0A434).
T1 construct: gene opd; synthetic gene in pET-Strep vector, expressed in E. coli BL21 (DE3) with GroEL/ES, ZnCl2 in medium; clarified lysate
Briefly: absorbance at […] nm, p-nitrophenolate release, initial rate in clarified lysate. In kind it is biochemical. Conditions: 180 uM substrate; Tris-HCl pH 7.5 lysis buffer, 0.1% Triton X-100; native activity.

Molecules are shown by their SMILES.

For the compound `CCOP(=O)(OCC)Oc1ccc([N+](=O)[O-])cc1` [paraoxon], the “absorbance at 405 nm, p-nitrophenolate release, initial rate in clarified lysate” value was “wtPTE catalyzes the hydrolysis of paraoxon (PTE activity)”.
